In patent publication US20250011330A1, “Imidazo[1,2- a]pyrazine and Imidazo[1,2- a]pyridine Based Tyrosyl-DNA Phosphodiesterase I (TDP1) Inhibitors” (The USA, As Represented by the Secretary, Department of …, priority 2021, published 2025):
Where two headings read alike, the source gives them in different places. Blank lines part the entries; values can stand above or below the compound they belong to.

Legend:
TDP2 [1] = biological target: T1, TDP2 (Homo sapiens (Human), UniProt O95551); experiment: TDP2 degrading activity as stated in the description; conditions: list in description
T1 sequence (O95551 whole entry, species assumed): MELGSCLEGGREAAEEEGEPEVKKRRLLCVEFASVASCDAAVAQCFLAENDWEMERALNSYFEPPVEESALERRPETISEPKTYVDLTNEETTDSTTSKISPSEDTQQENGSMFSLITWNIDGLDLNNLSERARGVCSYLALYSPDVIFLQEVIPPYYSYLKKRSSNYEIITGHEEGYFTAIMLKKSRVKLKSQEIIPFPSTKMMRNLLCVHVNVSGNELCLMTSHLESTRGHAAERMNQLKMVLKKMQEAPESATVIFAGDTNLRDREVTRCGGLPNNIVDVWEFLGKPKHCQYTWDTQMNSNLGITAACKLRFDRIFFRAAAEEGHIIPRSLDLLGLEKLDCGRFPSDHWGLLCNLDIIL

TDP2 [2] = biological target: T1, TDP2; experiment: gel-based TDP2 fluorescence assay in vitro; assay type: biochemical; conditions: for IC50: read-out: TDP2 IC50; for inhibition of TDP2, primary screen: 111 μM, preincubation with TDP2 at room temperature overnight
Procedure: (§1) (TDP assay buffer: 50 mM Tris HCl, pH 7.5, 80 mM KCl, 2 mM EDTA, 1 mM DTT, 40 μg/ml BSA and 0.01% Tween-20. TDP1 (20 mg/mL in 25 mM Tris-HCl pH 7.2, 150 mM NaCl, 2 mM tris(2-carboxyethyl)phosphine) with 2 mL of well solution composed of 0.1 M MOPS/HEPES pH 7.5, 10% (w/v) PEG 8000, 20% (v/v) ethylene glycol, 0.03 M sodium fluoride, 0.03 M sodium bromide, 0.03 M sodium iodide, 0.03 M sodium bromide and sealed over […] well solution. AF647 labelling buffer: Tris-HCl (pH 7.2, 25 mM), NaCl (150 mM), and tris(2-carboxyethyl)phosphine hydrochloride (TCEP, 2 mM).)
(§2) (DNA only: Buffer+DMSO. DMSO only: Enzyme+DMSO. Drug: Enzyme+Drug, 25° C., 10 min+DNA, reaction at 25° C., 15 min.)

TDP1 [3] = biological target: T2, TDP1 (Homo sapiens (Human), UniProt Q9NUW8); experiment: TDP1 gel-based in vitro fluorescence assay; assay type: biochemical
T2 sequence (Q9NUW8 whole entry): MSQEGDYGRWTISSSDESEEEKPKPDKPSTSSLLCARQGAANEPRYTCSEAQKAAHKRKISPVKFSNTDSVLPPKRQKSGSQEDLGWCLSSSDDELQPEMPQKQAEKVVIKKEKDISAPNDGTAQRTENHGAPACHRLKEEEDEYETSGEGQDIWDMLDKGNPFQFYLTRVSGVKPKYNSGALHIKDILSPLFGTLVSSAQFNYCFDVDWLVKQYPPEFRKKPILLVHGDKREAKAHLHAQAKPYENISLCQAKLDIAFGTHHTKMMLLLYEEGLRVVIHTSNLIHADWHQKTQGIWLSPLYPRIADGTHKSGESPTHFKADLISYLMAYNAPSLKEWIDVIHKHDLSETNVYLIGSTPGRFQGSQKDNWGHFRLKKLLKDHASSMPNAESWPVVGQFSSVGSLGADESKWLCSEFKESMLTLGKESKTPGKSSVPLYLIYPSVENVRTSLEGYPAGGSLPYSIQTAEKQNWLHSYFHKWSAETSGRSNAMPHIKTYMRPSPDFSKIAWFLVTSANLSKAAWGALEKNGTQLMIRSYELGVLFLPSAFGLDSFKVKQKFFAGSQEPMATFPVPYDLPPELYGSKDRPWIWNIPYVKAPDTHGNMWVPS
Procedure: as §1, §2
Gel images were scanned using a Typhoon FLA 9500 scanner (GE Healthcare) and densitometric analyses were performed using the ImageQuant software (GE Healthcare). The IC50 of TDP1 inhibitors was calculated by comparing the percentage of cleavage product (5′Cy5-[…]-p-3′) to DMSO control.

[4] = test system: human colon cancer cell line HCT116; experiment: Synergistic effect with camptothecin (CPT) based on cell viability; conditions: for synergy with camptothecin: list in description; for Synergy Score: with camptothecin (CPT), HCT116, 72 h, SynergyFinder 2.0
Procedure: The synergistic effects of the TDP1 inhibitors with CPT were tested in human colon cancer cell line HCT116 based on cell viability (Table 3, FIGS. 2-5). Cells were first seeded in a 384-well black-clear plate until 30% confluency and then incubated with a serial dilution of CPT at the range of 0-100 nM in the present or the absence of TDP1 inhibitors for 72 h at 37° C. Viable cell numbers were counted from the brightfield images taken by Biotek Cytation 5 (FIGS. 2-3). Fractional affect (Fa) and combination index (Ci) were analyzed with CompuSyn software. Synergistic scores of each TDP1 inhibitors were calculated and collected based on the data analysis from SynergyFinder (FIG. 4). […]

TDP1 [5] = biological target: T2, TDP1; experiment: Degradation assay (western blotting) of TDP1 in HCT116 and HEK293 cells; assay type: cell-based; conditions: for TDP1 degradation in cells: 200 uM concentration; for TDP1 degrading activity: list in description
Procedure: The degradation effect of the TDP1 inhibitors on TDP1 in human colon cancer cell line HCT116 and embryonic kidney cell line HEK293 were studied. Cells were first seeded in a 6-well plate until 60-80% confluency and then incubated with a serial dilution of TDP1 inhibitors at the range of 25-200 μM for 24-72 h at 37° C. […] Samples were then sonicated at 30% for 10 s and centrifuged for 15 min at 15000 rpm at 4 Celsius. Supernatant were collected and the concentration of total protein were measured by BCA Protein Assay Kit according to its protocols. Four micrograms of total protein for each sample were loaded and TDP1 level were conducted by western blotting.

[6] = Table 8, lead compounds with different linkers
[7] = Table 1, imidazo[1,2-a]pyridin-3-amines, read-out: IC50
[8] = Table 7, HPLC-purified oxime leads
[9] = Table 7, ratio of IC50 TDP2 to TDP1
[10] = Table 8, lead compounds with different linkers, read-out: TDP1 IC50
[11] = Table 9, fluorosulfates and sulfonyl fluorides, read-out: TDP1 IC50
[12] = Table 9, fluorosulfates and sulfonyl fluorides

Compound: 4-((2-(4-(2-((4-(5-((λ^2-Azaneylidene)-λ^3-methyl)pyridin-2-yl)phenyl)methoxy)ethyl)phenyl)imidazo[1,2-a]pyridin-3-yl)amino)benzoic acid [XZ727]
- TDP2 degrading activity (TDP2 [1]): exhibit TDP2 degrading activity
- IC50 (TDP2 [2]; [6]): 70.5 ± 13.5 µM

Compound: CS(=O)(=O)c1ccc2nc(-c3ccccc3)c(Nc3ccc([N+](=O)[O-])cc3)n2c1 [Compound 6u, 6-(Methylsulfonyl)-N-(4-nitrophenyl)-2-phenylimidazo[1,2-a]pyridin-3-amine]
- IC50 (TDP1 [3]; [7]): 16.1 µM
- synergy with camptothecin [4]: exhibit synergy with camptothecin

- IC50 (TDP2 [2]; Table 3): > 100 µM
Compound: O=C(O)c1ccc(Nc2c(-c3ccccc3)nc3cnccn23)cc1 [Compound 7b, 4-((2-Phenylimidazo[1,2-a]pyrazin-3-yl)amino)benzoic acid]
- Synergy Score [4]: 3

- IC50 (TDP2 [2]; Table 3): > 100 µM
Compound: O=C(O)c1ccc(Nc2c(-c3ccccc3)nc3ccccn23)cc1 [Compound 8a, 4-((2-Phenylimidazo[1,2-a]pyridin-3-yl)amino)benzoic acid]
- Synergy Score [4]: −1.3

Compound: O=C(O)c1ccc(Nc2c(-c3ccccc3)nc3ccc(C(=O)O)cn23)cc1 [Compound 8m, 3-((4-Carboxyphenyl)amino)-2-phenylimidazo[1,2-a]pyridine-6-carboxylic acid]
- IC50 (TDP1 [3]; [7]): 0.9 µM
- synergy with camptothecin [4]: exhibit synergy with camptothecin

Compound: O=C(O)c1ccc(Nc2c(-c3ccccc3)nc3ccc(Br)cn23)cc1 [Compound 8o, 4-((6-Bromo-2-phenylimidazo[1,2-a]pyridin-3-yl)amino)benzoic acid]
- IC50 (TDP1 [3]; [7]): 1.6 µM
- synergy with camptothecin [4]: exhibit synergy with camptothecin

Compound: CS(=O)(=O)c1ccc2nc(-c3ccccc3)c(Nc3ccc(C(=O)O)cc3)n2c1 [Compound 8q, 4-((6-(Methylsulfonyl)-2-phenylimidazo[1,2-a]pyridin-3-yl)amino)benzoic acid]
- TDP1 Selectivity (TDP1 [3]; ratio of IC50 values of TDP1/TDP2): 26
- Synergy Score [4]: 9.5

- IC50 (TDP2 [2]; Table 3): > 100 µM
Compound: O=C(O)c1ccc(Nc2c(-c3ccccc3)nc3cc(C(=O)O)ccn23)cc1 [Compound 8s, 3-((4-Carboxyphenyl)amino)-2-phenylimidazo[1,2-a]pyridine-7-carboxylic acid]
- synergy with camptothecin [4]: exhibit synergy with camptothecin
- Synergy Score [4]: 20.7

- IC50 (TDP2 [2]; Table 3): > 100 µM
Compound: O=C(O)c1ccc(Nc2c(-c3ccccc3)nc3ccccn23)cc1C(=O)O [Compound 10b, 4-((2-Phenylimidazo[1,2-a]pyridin-3-yl)amino)phthalic acid]
- synergy with camptothecin [4]: exhibit synergy with camptothecin
- Synergy Score [4]: 17.9

Compound: O=C(O)c1ccc(Nc2c(-c3ccccc3O)nc3cnccn23)cc1 [Compound M7]
- synergy with camptothecin [4]: exhibit synergy with camptothecin
- Synergy Score [4]: 15.6

- IC50 (TDP2 [2]; [8]): > 100 µM
- IC50 (TDP2 [2]; [6]): > 100 µM
- TDP1 degradation in cells (TDP1 [5]): does not
- TDP1 degrading activity (TDP1 [5]): exhibit TDP1 degrading activity
Compound: O=C(O)c1ccc(Nc2c(-c3ccccc3)nc3ccccn23)cc1 [XZ615]

- IC50 (TDP2 [2]; Table 3): > 100 µM
- IC50 (TDP2 [2]; [8]): > 100 µM
- IC50 (TDP2 [2]; [6]): > 100 µM
- TDP1 degradation in cells (TDP1 [5]): shows TDP1 degradation
- TDP1 degrading activity (TDP1 [5]): exhibit TDP1 degrading activity
Compound: O=C(O)c1ccc(Nc2c(-c3ccccc3)nc3cc(-c4ccccc4)ccn23)cc1 [XZ664, 4-((2,7-Diphenylimidazo[1,2-a]pyridin-3-yl)amino)benzoic acid]
- Synergy Score [4]: 9.1

- FC (fold change) (TDP1 [3]; [9]): 1
- IC50 (TDP1 [3]; purified oximes and SMM leads, read-out: TDP1 IC50): ~10 µM
- TDP2 degrading activity (TDP2 [1]): exhibit TDP2 degrading activity
- IC50 (TDP2 [2]; [8]): 10.9 ± 1.1 µM
- IC50 (TDP2 [2]; purified oximes): ~10 µM
Compound: O=C(O)c1ccc(Nc2c(-c3ccc(CO/N=C/c4ccc(N5CCCC5=O)cc4)cc3)nc3cc(-c4ccccc4)ccn23)cc1 [XZ703, (E)-4-((2-(4-((((4-(2-Oxopyrrolidin-1-yl)benzylidene)amino)oxy)methyl)phenyl)-7-phenylimidazo[1,2-a]pyridin-3-yl)amino)benzoic acid]

Compound: N#Cc1ccc(-c2ccc(/C=N/OCc3ccc4nc(-c5ccccc5)c(Nc5ccc(C(=O)O)cc5)n4c3)cc2)nc1 [XZ706, (E)-4-((6-((((4-(5-cyanopyridin-2-yl)benzylidene)amino)oxy)methyl)-2-phenylimidazo[1,2-a]pyridin-3-yl)amino)benzoic acid]
- IC50 (TDP1 [3]; Table 7, HPLC-purified oxime leads, read-out: TDP1 IC50): 17.4 ± 3.2 µM
- FC (fold change) (TDP1 [3]; [9]): 4
- loss of TDP1 potency relative to 102 (TDP1 [3]; fold loss versus 102): about 2 fold
- IC50 (TDP2 [2]; [8]): 62.1 ± 10.1 µM
- synergy with camptothecin [4]: exhibit synergy with camptothecin

Compound: N#Cc1ccc(-c2ccc(/C=N\OCc3ccc(-c4nc5cc(-c6ccccc6)ccn5c4Nc4ccc(C(=O)O)cc4)cc3)cc2)nc1 [XZ708, (Z)-4-((2-(4-((((4-(5-Cyanopyridin-2-yl)benzylidene)amino)oxy)methyl)phenyl)-7-phenylimidazo[1,2-a]pyridin-3-yl)amino)benzoic acid]
- FC (fold change) (TDP1 [3]; [9]): >18
- IC50 (TDP2 [2]; [8]): > 100 µM
- synergy with camptothecin [4]: exhibit synergy with camptothecin

Compound: N#Cc1ccc(-c2ccc(Cn3cc(-c4ccc5nc(-c6ccccc6)c(Nc6ccc(C(=O)O)cc6)n5c4)nn3)cc2)nc1 [XZ723, 4-((6-(1-(4-(5-Cyanopyridin-2-yl)benzyl)-1H-1,2,3-triazol-4-yl)-2-phenylimidazo[1,2-a]pyridin-3-yl)amino)benzoic acid]
- IC50 (TDP1 [3]; [10]): 66.4 ± 3.7 µM
- FC (fold change) (TDP1 [3]; Table 8, ratio of IC50 TDP2 to TDP1): 1
- TDP2 degrading activity (TDP2 [1]): exhibit TDP2 degrading activity
- IC50 (TDP2 [2]; [6]): 69.1 ± 11.8 µM

- IC50 (TDP1 [3]; [10]): > 100 µM
- IC50 (TDP2 [2]; [6]): > 100 µM
- TDP1 degrading activity (TDP1 [5]): exhibit TDP1 degrading activity
Compound: N#Cc1ccc(-c2ccc(CO/N=C/c3ccc(-c4nc5ccccn5c4Nc4ccc(C(=O)O)cc4)cc3)cc2)nc1 [XZ724]

- IC50 (TDP1 [3]; [10]): 25.6 ± 4.05 µM
- IC50 (TDP2 [2]; [6]): > 100 µM
- TDP1 degrading activity (TDP1 [5]): exhibit TDP1 degrading activity
Compound: N#Cc1ccc(-c2ccc(CO/N=C/c3ccc(-c4nc5cc(-c6ccccc6)ccn5c4Nc4ccc(C(=O)O)cc4)cc3)cc2)nc1 [XZ725]
- synergy with camptothecin [4]: exhibit synergy with camptothecin

Compound: O=C(O)c1ccc(N(c2c(-c3ccccc3OS(=O)(=O)F)nc3cc(-c4ccccc4)ccn23)S(=O)(=O)F)cc1 [XZ731, 4-((Fluorosulfonyl)(2-(2-((fluorosulfonyl)oxy)phenyl)-7-phenylimidazo[1,2-a]pyridin-3-yl)amino)benzoic acid]
- inhibition of TDP1, primary screen (TDP1 [3]; 111 μM, preincubation with TDP1 at room temperature overnight): inhibition
- IC50 (TDP1 [3]; [11]): 22.7 µM
- selectivity compared with TDP2, secondary screen (TDP1 [3]; preincubation overnight at room temperature): 2 fold
- inhibition, secondary screen (TDP1 [3]; preincubation with TDP overnight at room temperature): μM inhibition
- inhibition of TDP1, secondary screen (TDP1 [3]; room temperature, preincubation 10 minutes): no inhibition
- TDP2 degrading activity (TDP2 [1]): exhibit TDP2 degrading activity
- inhibition of TDP2, primary screen (TDP2 [2]): inhibition
- IC50 (TDP2 [2]; [12]): 45.5 µM

Compound: O=C(O)c1ccc(Nc2c(-c3ccccc3)nc3ccc(OS(=O)(=O)F)cn23)cc1 [XZ732, 4-((6-((Fluorosulfonyl)oxy)-2-phenylimidazo[1,2-a]pyridin-3-VA)amino)benzoic acid]
- IC50 (TDP1 [3]; [11]): > 100 µM
- TDP2 degrading activity (TDP2 [1]): exhibit TDP2 degrading activity
- inhibition of TDP2, primary screen (TDP2 [2]): inhibition
- IC50 (TDP2 [2]; [12]): 65.8 µM

Compound: O=S(=O)(F)c1ccc(Nc2c(-c3ccccc3)nc3ccccn23)cc1 [XZ734, 4-((2-Phenylimidazo[1,2-a]pyridin-3-yl)amino)benzenesulfonyl fluoride]
- IC50 (TDP1 [3]; [11]): > 100 µM
- IC50 (TDP2 [2]; [12]): > 100 µM
- TDP1 degradation by covalent inhibitors (TDP1 [5]; FIG. 39): degrade TDP1
- TDP1 degrading activity (TDP1 [5]): exhibit TDP1 degrading activity
